Source: patent publication US20210346506A1, “PRODRUG OF ITRACONAZOLE AND USES THEREOF” (priority 2020, published 2021)
One block for each compound: values may come before it.

Key:
[1] = Compound stability test in mouse blood; type: in vitro ADME; conditions: 37° C., 1 μM; for Remaining Percentages (%): mouse blood
Procedure: (§1) One (1) mM test compound working solution was prepared in DMSO. One (1) mM propantheline working solution was prepared in acetonitrile, wherein propantheline was used as positive control in this assay.
(§2) Ten (10) μL of each test compound solution and the control compound solution were respectively added into a 96 deep well plate, and 40 μL of acetonitrile:water (V/V=1:1) was added to each well to dilute the 1 mM test compound solution to 200 μM working solution.
(§3) Mouse blood (male CD-1 mouse blood, Pharmaron, Lot# PH-ADME-Mouse-20180329) or human blood (Pharmaron, Lot# PH-ADME-Human-20180329) of 398 μL was added to each well of an incubation plate, and then the incubation plate was pre-warmed at 37° C. for 15 minutes. After the pre-incubation, 2 μL of 200 μM working solution prepared above was spiked to the pre-warmed 398 μL blood to reach a final concentration of 1 μM. The final concentration of DMSO was 0.1% and the final concentration of acetonitrile was 0.2%. The assay was performed in duplicate.
(§4) The incubation plate was incubated at 37° C. water bath with shaking at 50 rpm, and aliquots of 50 μL were taken from each well of the incubation plate at 0, 10, 30, 60, 90, 120 and 180 minutes.
(§5) The reaction was stopped by the addition of 50 μL of pure water. The plate was vortexed for 30 seconds at 1,000 rpm and then added with 300 μL of cold acetonitrile containing internal standards (100 nM aprozolam, 200 nM caffeine, 100 nM tolbutamide).
(§6) All samples were vortexed for 10 minutes, followed by centrifugation at 14,000 rpm for 15 minutes to precipitate proteins. 100 μL of each supernatant was transferred to a new plate, and diluted with ultrapure water according to the LC-MS signal response and peak shape.
(§7) Samples were analyzed by LC-MS/MS.
(§8) • LC system: ACQUITY UPLC® I-Class • MS analysis: Waters XEVO® TQ-D with an ESI interface • Column temperature: 40° C. • Injection volume: 3 μL • Column: Waters XSelect HSS T3 C18, 2.5 μm, 2.1×50 mm column • Mobile phase: 0.1% formic acid in water (A) and 0.1% formic acid in acetonitrile (B)
(§9) • Ion source: Turbo spray • Ionization model: ESI • Scan type: MRM • Cone gas: 150 L/h • Desolvation gas: 1000 L/h • Desolvation temperature: 500° C. • Capillary voltage: 3.00 KV
(§10) All calculations were carried out using Microsoft Excel. Peak area ratios were determined from extracted ion chromatograms, and percent compounds remaining at each time point were calculated by the following equation:
(§11) Remaining Percentaget min(%)=Peak Area Ratiot min/Peak Area Ratio0 min×100, where Peak Area Ratiot min referred to peak area ratio of control and test compounds at t min; and Peak Area Ratio0 min referred to peak area ratio of control and test compounds at zero time point. The in vitro half-life (in vitro t1/2) was determined from the slope value: In vitro T1/2=−(0.693/k).

[2] = Compound stability test in human blood; type: in vitro ADME; conditions: 37° C., 1 μM; for Remaining Percentages (%): human blood
Procedure: as §1, §2, §3, §4, §5, §6, §7, §8, §9, §10, §11

[3] = Pharmacokinetic study of itraconazole release in mice after intravenous and oral dosing of Compound 6; type: in vivo, mouse; conditions: for Plasma itraconazole Concentration (ng/mL): mice, individual mice
Procedure: Compound 6 was dissolved in DMSO:PEG400:water (1:4:5, v/v/v) with a final concentration of 0.2 mg/ml or 0.5 mg/ml. The 0.2 mg/ml solution was used for intravenous dosing, and the 0.5 mg/ml solution was for oral dosing.
Three male C57BL/6 mice were intravenously administered with Compound 6 at a dose of 1.0 mg/kg, and blood samples were collected at 2 min, 15 min, 30 min, 1 h, 2 h, 4 h, 6 h, 8 h, and 24 h post administration.
Three male C57BL/6 mice were orally given Compound 6 at a dose of 5.0 mg/kg, and blood samples were collected at 15 min, 30 min, 1 h, 2 h, 4 h, 6 h, 8 h, and 24 h post administration.
And dose levels were corrected in PK parameter calculation due to the salt factor.
The blood samples were subject to LC-MS/MS analysis, to monitor the plasma concentrations of both the parent compound and Itraconazole.
Column: Waters XSELECT HSS T3 2.5 μm 2.1×50 mm
Mobile phase: 5% Acetonitrile in Water (0.1% Formic acid) (A) and 95% Acetonitrile in Water (0.1% Formic acid) (B)
Gradient: flow rate at 0.6 mL/min
AB Sciex Triple Quad 5500 LC/MS/MS instrument (Serial NO. BB212611510)
Quantification: Internal Standard Method

[4] = relatively low dose; cited from earlier work

half-life at 1 μM ([1]; male, CD-1, in vitro half-life in mouse blood): 10 min | Remaining Percentages (%) ([1]; 0 min): 100% | Remaining Percentages (%) ([1]; 10 min): 51.5% | Remaining Percentages (%) ([1]; 30 min): 12.6% | Remaining Percentages (%) ([1]; 60 min): 3.10% | Remaining Percentages (%) ([1]; 90 min): 0.595% | Remaining Percentages (%) ([1]; 120 min): 0.186% | Remaining Percentages (%) ([1]; 180 min): 0.232% | Remaining Percentages (%) ([2]; 0 min): 100% | Remaining Percentages (%) ([2]; 10 min): 94.2% | Remaining Percentages (%) ([2]; 30 min): 77.3% | Remaining Percentages (%) ([2]; 60 min): 55.3% | Remaining Percentages (%) ([2]; 90 min): 41.1% | Remaining Percentages (%) ([2]; 120 min): 34.0% | Remaining Percentages (%) ([2]; 180 min): 15.2% | half-life at 1 μM ([2]; in vitro half-life in human blood): 67.4 min | Plasma itraconazole Concentration (ng/mL) ([3]; IV Dose 0.822 mg/kg Compound 6, 8 h, 0.822 mg/kg): BLOQ | Plasma itraconazole Concentration (ng/mL) ([3]; IV Dose 0.822 mg/kg Compound 6, 24 h): BLOQ | Plasma itraconazole Concentration (ng/mL) ([3]; PO Dose 4.11 mg/kg Compound 6, 24 h): BLOQ
Compound: CCOC(=O)OC[n+]1cnn(CC2(c3ccc(Cl)cc3Cl)OCC(COc3ccc(N4CCN(c5ccc(-n6cnn(C(C)CC)c6=O)cc5)CC4)cc3)O2)c1.[Cl-] (stereo not drawn) [Compound 6]
abnormal clinical symptoms during the test ([3]; male C57BL/6 mice, 1.0 mg/kg intravenous or 5.0 mg/kg oral Compound 6): No mice were observed with abnormal clinical symptoms

Compound: CCC(C)n1ncn(-c2ccc(N3CCN(c4ccc(OCC5COC(Cn6cncn6)(c6ccc(Cl)cc6Cl)O5)cc4)CC3)cc2)c1=O (stereo not drawn) [Itraconazole]
adverse effect, in words [4]: no observed adverse effect
